This is an account of results in paper PMC9728921, “Characterization of a KDM5 small molecule inhibitor with antiviral activity against hepatitis B virus” (PLOS ONE, 2022).

“Also recorded” adds a separate entry of the source.

Data set [1] relates to HBV cccDNA. The data set can be described thus: cccDNA levels by Southern blot in HBV-infected PHH. The following applies: 1 or 10 µM every three to four days for 14 days. The format is cell-based, Hepatitis B virus. The protocol: PHH were plated in 24-well plates at 350,000–400,000 live cells per well and infected with HBV genotype D as described above. […] DNA was isolated from PHH using a MasterPure Complete DNA Purification kit (Epicentre, Madison, WI; MC85200) according to the manufacturer’s instructions, but omitting ProteinaseK or RNaseA treatment. After isolation, DNA was treated with T5 exonuclease (New England Biolabs, Ipswich, MA; M0363S) according to the manufacturer’s instructions.
cccDNA and host mitochondrial DNA (ND4) levels were examined by Southern blot using branched DNA signal amplification (bDNA) method as previously described. All probes and reagents were purchased from Thermo Fisher Scientific.
PHH were infected with HBV for three days prior to initiation of GS-5801 treatment. […] Total DNA was isolated, treated with T5 exonuclease to reduce levels of relaxed circular HBV DNA (rcDNA), and probed for cccDNA and mitochondrial DNA (Mt ND4: NADH-ubiquinone oxidoreductase chain 4) by Southern blot.

Data set [2] is classed as in vivo, human. The source says: Nevertheless, any further clinical evaluation of KMD5 inhibitors in other therapeutic areas should pay close attention to hepatotoxic effects, which might me associated with inhibition of the biologic target even at low levels of engagement.
For the clinical studies mentioned above, all patients signed an informed consent form before screening and in accordance with local regulatory and ethics committee requirements.

The target of data set [3] is T1, KDM5B (Homo sapiens, UniProt Q9UGL1).
T1 construct: purchased Reaction Biology Corp (assay run there as a contract service)
Nature of the data set: KDM5B enzymatic assay (CisBio HTRF). The format is biochemical. The protocol: KDM5A and 5B were tested using CisBio HTRF assay platform by Reaction Biology Corp (Malvern, PA). All concentrations are final unless noted otherwise. Inhibitors were pre-incubated with 2.5 nM KDM5A or 1.2 nM KDM5B in a 5 μL reaction mixture containing 50 mM HEPES (pH 7.5), 50 mM NaCl, 0.01% Tween 20, 0.01% BSA for 15 min temperature. The reaction was initiated by addition of 5 μL of 50 nM Biotin-H3K4me3 and incubated with gentle shaking for 45 min at RT. The reaction was quenched with 10 mM EDTA and 200 mM potassium fluoride. Upon addition of Eu-Antibody and Streptavidine-XL665, the mixture was incubated for 2 hours in the dark. The fluorescence resonance energy transfer was measured using an excitation wavelength of 320 nm and emission wavelength of 665 nm on an Envision plate reader (Perkin Elmer).
(§1) Data was analyzed using GraphPad Prism 6.0 (La Jolla, CA). […] IC50 values were calculated as an average of at least two independent experiments.
(In TR-FRET formats the signal depends on donor and acceptor labels being close together.)

Data set [4] has as its target KDM4C (Homo sapiens, UniProt Q9H3R0). The data set can be described thus: biochemical. How it is done:
(§2) The following assay protocol was used for all histone demethylases tested except KDM1A, KDM5A, B, and D, which are described below. Compounds were serially diluted into a 384-well Alpha plate as a DMSO solution and mixed with 5 μL reaction buffer (buffer A) containing 50 mM HEPES (pH 7.0), 0.1% BSA, and 0.003% Tween-20. The enzyme of interest was pre-incubated with 15 μM of Fe^2+ for 10 min (except 30 min for KDM2B) in reaction buffer A. 5 μL of the enzyme mixture was added to each of the compound-containing wells and incubated for 10 min. The reaction was started by addition of a 5 μL mixture containing 300 nM peptide substrate, 75 μM L-ascorbic acid, and 30 μM α-ketoglutarate in buffer A. This final 15 μL of reaction mixture was incubated for 20 min for KDM5B and 1 hour for the other KDM enzymes. The reaction was quenched with 10 μL of diluted AlphaLISA Acceptor beads (1:400) in Epigenetics Buffer and incubated for 60 min. The Donor beads were diluted 1:400 into Epigenetics Buffer in the dark and 10 μL of this was added to each well and incubated for another 60 min in the dark. The assay plates were read on an Enspire plate reader (PerkinElmer) using a standard AlphaLISA program.
as §1

For data set [5], the target named is KDM1A (Homo sapiens, UniProt O60341). Nature of the data set: KDM1A enzymatic assay (AlphaLISA, NAD). The data set is classed as biochemical. How it is done: The KDM1 assay was conducted in the presence of NAD but without Fe(II) or ascorbic acid. A 10 μL reaction mixture containing 50 mM Tris-HCl (pH 9.0), 50 mM NaCl, 0.01% Tween-20, 0.25 nM of enzyme, and 1 mM NAD was pre-incubated for 10 min. The reaction was started by addition of 5 μL of H3(1–21)K4 me1, and the reaction mixture was incubated for 60 min. The reaction was quenched with 10 μL AlphaLISA Acceptor beads (1:200) in Epigenetics Buffer and the reaction mixture was incubated for 60 min. The Donor beads were diluted 1:200 into Epigenetics Buffer in the dark, and 10 μL of this mixture was added to each well and incubated for another 60 min in the dark. The assay plates were read on an Enspire plate reader (PerkinElmer) using a standard AlphaLISA program.
as §1

The target of data set [6] is KDM6A (Homo sapiens, UniProt O15550). The data set can be described thus: KDM6A enzymatic assay (AlphaLISA). The data set is classed as biochemical. How it is done: as §2, §1
For orientation: Alpha assays give light when donor and acceptor beads are brought close together.

The target in data set [7] is KDM7B (Homo sapiens, UniProt Q9UPP1). The data set can be described thus: KDM7B enzymatic assay (AlphaLISA). The data set is classed as biochemical. The protocol:
as §2, §1

For data set [8], the target named is T2, SET7/9 (Homo sapiens, UniProt Q8WTS6).
T2 construct: 2-366; purchased RBC (read as Reaction Biology Corporation, named)
Nature of the data set: Histone methyltransferase enzymatic assay, SET7/9. The format is biochemical. The conditions noted are these: enzyme conc. 100 nM. The protocol:
(§3) Histone methyltransferase assays were performed in 96-well half-area optiplates (PerkinElmer) at room temperature. All concentrations are final unless noted otherwise. Compounds were serially diluted in DMSO and the final DMSO concentration was 1%. A 24 μL reaction mixture contained compound, enzyme, 200 nM of nucleosome or histone substrate, 400 nM ^3H-SAM (83.1 Ci/mmol), 50 mM Tris-HCl (pH 8.0), 50 mM NaCl, 5 mM MgCl2, 1 mM DTT, and 0.01% Tween-20. The plate was sealed, mixed on a Titramax plate shaker at 1200 rpm for 30 sec, and incubated at room temperature for 60 min. The reaction was quenched by addition of 24 μL mixture containing 5 mg/mL PVT-PEI beads and 300 μM unlabeled SAM in water. The plate was sealed, mixed as previously noted, incubated overnight, and read on a TopCount plate reader (PerkinElmer).
as §1

Data set [9] addresses T3, PRMT1 (Homo sapiens, UniProt Q99873).
T3 construct: 2-371
The data set can be described thus: Histone methyltransferase enzymatic assay, PRMT1. The conditions noted are these: enzyme conc. 100 nM. The data set is classed as biochemical. How it is done:
as §3, §1

Chain of KDM7B (Q9UPP1 whole entry): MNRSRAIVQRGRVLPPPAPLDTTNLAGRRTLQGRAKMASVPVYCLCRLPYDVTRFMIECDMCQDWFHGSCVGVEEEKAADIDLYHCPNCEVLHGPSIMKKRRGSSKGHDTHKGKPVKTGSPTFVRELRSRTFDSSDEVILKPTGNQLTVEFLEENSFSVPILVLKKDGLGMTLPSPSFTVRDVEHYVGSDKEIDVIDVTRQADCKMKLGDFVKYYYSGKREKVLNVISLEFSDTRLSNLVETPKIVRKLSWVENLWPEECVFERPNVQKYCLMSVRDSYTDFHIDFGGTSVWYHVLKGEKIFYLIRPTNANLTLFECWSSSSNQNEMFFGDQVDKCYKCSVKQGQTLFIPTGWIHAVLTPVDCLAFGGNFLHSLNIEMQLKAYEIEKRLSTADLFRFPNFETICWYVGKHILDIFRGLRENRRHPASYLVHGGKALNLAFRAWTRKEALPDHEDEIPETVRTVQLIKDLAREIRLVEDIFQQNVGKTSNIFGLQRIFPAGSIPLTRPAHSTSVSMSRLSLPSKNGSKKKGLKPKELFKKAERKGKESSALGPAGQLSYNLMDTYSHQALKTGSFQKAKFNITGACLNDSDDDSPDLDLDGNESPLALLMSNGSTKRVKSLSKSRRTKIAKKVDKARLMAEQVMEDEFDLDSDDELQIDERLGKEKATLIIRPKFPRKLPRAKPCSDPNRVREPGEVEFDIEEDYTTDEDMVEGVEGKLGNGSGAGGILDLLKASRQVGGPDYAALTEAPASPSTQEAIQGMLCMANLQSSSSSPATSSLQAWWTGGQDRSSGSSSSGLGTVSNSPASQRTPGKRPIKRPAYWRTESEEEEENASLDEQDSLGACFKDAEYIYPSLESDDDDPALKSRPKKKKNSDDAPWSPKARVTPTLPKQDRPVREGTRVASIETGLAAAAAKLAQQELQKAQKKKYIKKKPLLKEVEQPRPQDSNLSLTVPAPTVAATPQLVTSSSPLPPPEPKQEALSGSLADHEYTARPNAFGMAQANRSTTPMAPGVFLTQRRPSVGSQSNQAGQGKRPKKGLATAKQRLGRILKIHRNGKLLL
T1 sequence (Q9UGL1 whole entry): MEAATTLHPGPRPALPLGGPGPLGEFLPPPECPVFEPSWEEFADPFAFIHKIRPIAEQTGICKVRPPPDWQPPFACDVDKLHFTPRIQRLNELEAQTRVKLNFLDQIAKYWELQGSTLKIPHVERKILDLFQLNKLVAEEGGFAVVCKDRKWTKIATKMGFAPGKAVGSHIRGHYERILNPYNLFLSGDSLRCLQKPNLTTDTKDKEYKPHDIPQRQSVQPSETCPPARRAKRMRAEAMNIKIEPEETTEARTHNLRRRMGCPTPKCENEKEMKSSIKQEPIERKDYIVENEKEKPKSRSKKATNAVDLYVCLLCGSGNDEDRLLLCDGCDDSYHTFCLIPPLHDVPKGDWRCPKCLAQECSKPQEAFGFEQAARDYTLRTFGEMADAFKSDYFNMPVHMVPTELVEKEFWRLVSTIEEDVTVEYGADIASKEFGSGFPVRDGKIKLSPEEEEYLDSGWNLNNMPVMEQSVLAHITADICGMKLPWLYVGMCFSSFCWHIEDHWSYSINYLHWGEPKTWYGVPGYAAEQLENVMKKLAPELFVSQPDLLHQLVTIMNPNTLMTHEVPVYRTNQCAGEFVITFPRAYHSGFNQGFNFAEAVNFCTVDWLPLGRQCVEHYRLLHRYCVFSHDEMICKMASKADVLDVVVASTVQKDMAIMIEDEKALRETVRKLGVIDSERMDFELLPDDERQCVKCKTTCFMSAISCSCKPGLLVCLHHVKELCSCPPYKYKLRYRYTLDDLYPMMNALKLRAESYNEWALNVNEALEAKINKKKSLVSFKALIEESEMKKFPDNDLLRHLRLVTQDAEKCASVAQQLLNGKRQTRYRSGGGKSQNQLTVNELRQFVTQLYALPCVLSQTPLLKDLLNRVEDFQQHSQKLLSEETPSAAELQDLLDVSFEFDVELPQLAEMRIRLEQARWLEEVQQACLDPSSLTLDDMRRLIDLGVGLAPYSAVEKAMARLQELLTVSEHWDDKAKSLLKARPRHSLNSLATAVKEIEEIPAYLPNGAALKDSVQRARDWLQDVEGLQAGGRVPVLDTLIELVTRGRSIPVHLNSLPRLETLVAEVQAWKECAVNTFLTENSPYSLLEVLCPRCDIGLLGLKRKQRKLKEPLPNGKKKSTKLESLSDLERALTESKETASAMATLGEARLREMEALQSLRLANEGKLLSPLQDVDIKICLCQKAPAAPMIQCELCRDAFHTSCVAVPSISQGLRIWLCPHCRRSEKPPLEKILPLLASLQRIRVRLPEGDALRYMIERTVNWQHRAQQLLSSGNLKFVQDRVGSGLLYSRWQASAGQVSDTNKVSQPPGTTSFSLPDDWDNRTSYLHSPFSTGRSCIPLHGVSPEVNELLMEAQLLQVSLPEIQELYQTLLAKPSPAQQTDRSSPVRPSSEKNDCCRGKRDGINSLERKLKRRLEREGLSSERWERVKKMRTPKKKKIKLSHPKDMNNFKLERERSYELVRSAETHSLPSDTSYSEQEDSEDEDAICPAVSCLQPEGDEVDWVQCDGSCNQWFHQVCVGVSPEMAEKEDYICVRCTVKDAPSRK
Chain of KDM6A (O15550 whole entry): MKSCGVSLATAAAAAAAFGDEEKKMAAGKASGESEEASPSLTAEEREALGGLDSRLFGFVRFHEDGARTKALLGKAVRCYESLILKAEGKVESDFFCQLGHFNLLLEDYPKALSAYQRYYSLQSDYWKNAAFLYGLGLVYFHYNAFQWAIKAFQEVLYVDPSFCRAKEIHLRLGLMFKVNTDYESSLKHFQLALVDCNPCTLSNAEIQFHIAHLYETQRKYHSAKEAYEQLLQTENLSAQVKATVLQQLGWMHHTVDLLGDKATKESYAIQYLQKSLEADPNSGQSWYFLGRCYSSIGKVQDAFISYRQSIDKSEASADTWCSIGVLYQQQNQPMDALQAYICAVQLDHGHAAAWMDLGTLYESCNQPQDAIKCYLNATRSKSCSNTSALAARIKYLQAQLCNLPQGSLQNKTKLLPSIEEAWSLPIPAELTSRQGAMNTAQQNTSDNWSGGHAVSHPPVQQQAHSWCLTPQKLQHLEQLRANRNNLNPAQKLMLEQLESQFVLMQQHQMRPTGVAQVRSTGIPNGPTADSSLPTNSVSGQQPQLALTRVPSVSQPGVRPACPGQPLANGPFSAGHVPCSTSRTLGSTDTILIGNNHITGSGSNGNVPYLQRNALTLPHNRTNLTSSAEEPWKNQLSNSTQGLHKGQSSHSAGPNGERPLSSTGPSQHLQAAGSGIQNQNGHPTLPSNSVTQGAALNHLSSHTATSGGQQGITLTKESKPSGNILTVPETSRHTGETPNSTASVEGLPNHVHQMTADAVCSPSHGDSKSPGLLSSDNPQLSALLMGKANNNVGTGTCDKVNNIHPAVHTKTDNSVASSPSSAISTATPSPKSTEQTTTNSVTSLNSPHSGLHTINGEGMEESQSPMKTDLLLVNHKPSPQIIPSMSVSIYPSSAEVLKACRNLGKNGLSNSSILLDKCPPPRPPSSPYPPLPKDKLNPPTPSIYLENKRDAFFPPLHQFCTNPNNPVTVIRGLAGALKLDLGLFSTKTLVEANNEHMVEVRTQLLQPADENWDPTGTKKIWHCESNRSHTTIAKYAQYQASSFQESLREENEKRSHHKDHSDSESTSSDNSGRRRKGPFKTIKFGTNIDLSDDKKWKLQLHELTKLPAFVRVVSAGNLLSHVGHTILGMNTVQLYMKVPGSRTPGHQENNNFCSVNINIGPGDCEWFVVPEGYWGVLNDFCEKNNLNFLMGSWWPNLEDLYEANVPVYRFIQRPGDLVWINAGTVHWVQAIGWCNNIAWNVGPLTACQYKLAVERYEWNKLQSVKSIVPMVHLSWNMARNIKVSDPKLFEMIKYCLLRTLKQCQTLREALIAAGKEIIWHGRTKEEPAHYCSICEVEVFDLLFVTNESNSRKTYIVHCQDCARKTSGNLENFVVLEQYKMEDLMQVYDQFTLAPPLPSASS
Chain of KDM4C (Q9H3R0 whole entry): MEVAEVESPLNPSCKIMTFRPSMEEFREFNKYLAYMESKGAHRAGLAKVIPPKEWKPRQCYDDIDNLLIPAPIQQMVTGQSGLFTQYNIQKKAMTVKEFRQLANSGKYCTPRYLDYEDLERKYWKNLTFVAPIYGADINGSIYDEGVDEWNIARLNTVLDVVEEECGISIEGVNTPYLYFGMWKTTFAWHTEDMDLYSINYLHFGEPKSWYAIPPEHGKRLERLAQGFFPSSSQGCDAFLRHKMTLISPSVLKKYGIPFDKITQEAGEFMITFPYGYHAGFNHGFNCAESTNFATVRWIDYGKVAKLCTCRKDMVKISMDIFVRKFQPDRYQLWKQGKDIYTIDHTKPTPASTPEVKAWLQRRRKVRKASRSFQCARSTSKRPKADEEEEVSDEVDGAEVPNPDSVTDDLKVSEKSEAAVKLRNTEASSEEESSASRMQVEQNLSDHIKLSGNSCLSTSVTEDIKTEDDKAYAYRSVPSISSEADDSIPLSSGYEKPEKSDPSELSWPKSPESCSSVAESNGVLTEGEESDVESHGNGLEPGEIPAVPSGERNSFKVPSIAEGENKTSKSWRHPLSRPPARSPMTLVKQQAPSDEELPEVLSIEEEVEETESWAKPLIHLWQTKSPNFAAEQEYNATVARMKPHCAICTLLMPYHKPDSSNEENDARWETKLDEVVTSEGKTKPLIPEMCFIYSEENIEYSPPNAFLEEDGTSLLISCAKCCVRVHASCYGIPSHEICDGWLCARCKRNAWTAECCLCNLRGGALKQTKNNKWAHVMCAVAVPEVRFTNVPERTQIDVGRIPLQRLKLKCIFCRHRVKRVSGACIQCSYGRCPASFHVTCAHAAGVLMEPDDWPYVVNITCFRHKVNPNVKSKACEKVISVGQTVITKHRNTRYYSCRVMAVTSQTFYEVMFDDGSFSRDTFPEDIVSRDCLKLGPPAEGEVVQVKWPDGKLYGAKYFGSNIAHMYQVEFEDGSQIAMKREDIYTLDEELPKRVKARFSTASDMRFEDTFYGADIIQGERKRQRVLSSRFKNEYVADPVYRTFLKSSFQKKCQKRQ

With `CCOC(=O)c1ccnc(CNCC(=O)N(CC)CCN(C)C)c1` [GS-5801], the “levels of cccDNA” value in [1] was “did not alter levels of cccDNA; also recorded: does not reduce levels of cccDNA; also recorded: no sign of reduced cccDNA”. For the same compound, in data set [2] (HBV patients, to be published elsewhere), the “HBV antigen level decreases” value is given as “absence of any HBV antigen level decreases”. Besides, the liver toxicity result in [2] (human, in vivo) was “dose limiting, reversible liver toxicity”.
On to `CCN(CCN(C)C)C(=O)CNCc1cc(C(=O)O)ccn1` [GS-080], for which the “Fold Selectivity Compared to KDM5A” value in [3] (IC50 of KDM5B over KDM5A) is 1 fold; in data set [4] (IC50 of KDM4C over KDM5A), 13 fold; in data set [5] (IC50 of KDM1A over KDM5A) it was > 278,000 fold; in data set [6] (IC50 of KDM6A over KDM5A), > 17,200 fold; in data set [7] (IC50 of KDM7B over KDM5A) it was > 1,110 fold. Also, the IC50 in data set [3] (enzyme concentration 1.2 nM, IC50 lower than enzyme concentration, likely underestimates potency) is 0.38 nM; in [4] it was 4.8 nM; in [5] (enzyme concentration 0.25 nM) it was over 100000 nM; in data set [6] (enzyme concentration 2 nM), 6200 nM; in data set [7] (enzyme concentration 2.5 nM), 400 nM; in data set [8], over 100000 nM. Besides, in [9], the IC50 was over 100000 nM.

As usually defined, the IC50 is the concentration at which inhibition is half-maximal.
